One may read the IC50 as the point on the concentration scale where inhibition reaches its midpoint. A higher IC50 goes with lower potency.

One series deals with RACK1A (Arabidopsis thaliana, UniProt O24456). The series can be described thus: in-vitro assay of tyrosine phosphorylation (Y248) based homodimerization of RACK1A. The series is classed as biochemical. An excerpt:
A crystal structure of Arabidopsis thaliana RACK1 protein has been reported. Deducing the crystal structure of the Arabidopsis RACK1A protein highlighted the potential functional residues of the protein. Noteworthy in the structure was the functionally conserved tyrosine phosphorylation residue (Y248) that has been implicated in RACK1A function. Therefore, it was undertaken to identify a chemical inhibitor of Y248 phosphorylation that would serve as a potential “anti-stress” compound in countering environmental stresses in plants. In order to identify small compounds occupying the Y248 pocket, docking simulations with a subset of 30,000 compounds were performed. Based on ranking with an energy cut-off of 25 kcal/mol, 3,011 compounds were then selected. Upon further re-ranking, 46 lead compounds were identified and 11 compounds were screened for their efficacy in an in-vitro assay. […] Those six compounds include SD-29, SD-29-9, SD-29-11, SD-29-22, SD-34, and SD-125.

Another series deals with Arabidopsis plants. Nature of the series: salt stress (150 mM salt) in Arabidopsis plants. To be noted: 100 μM compound plus 150 mM salt, two weeks, 22° C., vs DMSO plus salt. In kind it is in vivo, Arabidopsis thaliana. As for the experimental part: In the examples described herein, the test compounds (e.g., SD-29 or analogs thereof) were dissolved in dimethyl sulfoxide (DMSO) to provide a 20 mM concentration. Micromolar concentrations were then prepared as needed by addition to the water incubation media. Unless stated otherwise, the experimental plants were incubated with the roots immersed in the water containing the compound. The control plants received only DMSO in the same amount as that of the compound. In the first experiment, Arabidopsis plants were treated with 150 mM salt for two weeks. One plant in each group was treated with 100 μM SD-29 plus 150 mM salt and the other plant in each group was treated with DMSO plus 150 mM salt. […] The plants were treated with the indicated treatment twice during the experiment.

A further series deals with T1, Arabidopsis RACK1A (Arabidopsis thaliana, UniProt O24456).
T1 construct: from tissue; host or cells: Arabidopsis plant leaves
The series can be described thus: western blot of RACK1A tyrosine phosphorylation in Arabidopsis leaves under heat stress. In kind it is in vivo. As for the experimental part:
In the examples described herein, the test compounds (e.g., SD-29 or analogs thereof) were dissolved in dimethyl sulfoxide (DMSO) to provide a 20 mM concentration. Micromolar concentrations were then prepared as needed by addition to the water incubation media. Unless stated otherwise, the experimental plants were incubated with the roots immersed in the water containing the compound. The control plants received only DMSO in the same amount as that of the compound. In the second group (FIG. 3), Arabidopsis plants were held at 42° C. for six hours and compared to control plants held at about 22° C. The Arabidopsis plant in the experimental group was treated with 60 μM SD-29 in water. A control plant received water and DMSO. Lysates were then prepared from the leaves and western blots were performed using immobilized mouse anti-pTRY and Arabidopsis-anti RAC[…]. […] A similar experiment was carried out using analog SD-29-9 and SD-29 at 42° C. for three hours. […] A western blot was then performed using an antibody that was raised targeting phosphorylated […] residue of RAC[…].
(A western blot detects proteins with antibodies after separation by electrophoresis.)

The subject of another series is rice detached leaves. The series can be described thus: salt-induced stress in rice detached leaves. The series is classed as in vivo. The note with it: seven days. As for the experimental part:
In the examples described herein, the test compounds (e.g., SD-29 or analogs thereof) were dissolved in dimethyl sulfoxide (DMSO) to provide a 20 mM concentration. Micromolar concentrations were then prepared as needed by addition to the water incubation media. Unless stated otherwise, the experimental plants were incubated with the roots immersed in the water containing the compound. The control plants received only DMSO in the same amount as that of the compound. The effect of SD-29 on modulating salt-induced stress was evaluated with rice detached leaves at room temperature (about 24° C.) for seven days in a water incubation medium. All plants received sufficient incubation medium to last the seven days. Plant A (left most) received 250 mM NaCl plus DMSO, Plant B (right of Plant A) received 60 μM SD-29 and 250 mM NaCl, and plant D received 60 μM SD-29 in the incubation medium. The incubation medium of Plant C was untreated. The rice plant leaves were photographed directly after seven days. […] Much of the chlorophyll of plant A (salt treatment alone) was degraded, while SD-29 treated leaves (Leaf B) maintained the chlorophyll level even in the presence of the same amount of salt.

Another series deals with pepper plants. The series can be described thus: salt-induced stress in pepper plants. To be noted: 60 μM compound plus 250 mM NaCl, 48 hours, about 24° C. The series is classed as in vivo. As for the experimental part: In the examples described herein, the test compounds (e.g., SD-29 or analogs thereof) were dissolved in dimethyl sulfoxide (DMSO) to provide a 20 mM concentration. Micromolar concentrations were then prepared as needed by addition to the water incubation media. Unless stated otherwise, the experimental plants were incubated with the roots immersed in the water containing the compound. The control plants received only DMSO in the same amount as that of the compound.
Salt-induced stress was evaluated with pepper plants at room temperature (about 24° C.) for 48 hours. All plants received sufficient incubation media to last the seven days. Plant A received 60 μM SD-29 plus 250 mM NaCl and plant B received 250 mM NaCl in the incubation medium with DMSO.

The next series concerns Cu/Zn SOD. The series can be described thus: native gel analysis of superoxide dismutase activity in pepper leaf lysate. In kind it is in vivo. To be noted: 60 μM compound plus 250 mM NaCl, vs DMSO treated plants. Here is the method:
Native gel analysis was performed on a lysate prepared from the pepper plant leaves in FIG. 8. The gel is stained for detecting enzymatic activity of different isoforms of superoxide dismutase—key enzymes that detoxify the reactive oxygen species which usually develop during the stress conditions. […] Therefore, it appears that SD-29 may help detoxify the cellular reactive oxygen species generated during the salt stress conditions.

In series [1] the test system is salt glands (trichome) on Arabidopsis leaves. Nature of the series: sodium green dye staining of Arabidopsis leaves (sodium uptake). To be noted: 1 week old plants, 100 mM salt, 60 μM compound, three hours. In kind it is in vivo, Arabidopsis thaliana. As for the experimental part:
1 week old Arabidopsis plants were treated with and without 100 mM salt, as well as with and without the presence of 60 μM SD-29, in incubation medium for three hours. The leaves were stained with sodium green dye (5 μM) according to the manufacturer's protocol (Invitrogen, Calif.) and analyzed by fluorescent microscopy to determine if the plants take up sodium from the incubation medium. The dye fluoresces in the presence of sodium ion.

Another series concerns Arabidopsis leaves. The series can be described thus: H2O2 accumulation in Arabidopsis leaves (DAB staining). To be noted: 5 μM H2O2 and DAB overnight, vs DMSO only. In kind it is in vivo, Arabidopsis thaliana. As for the experimental part: Arabidopsis leaves were treated with 5 μM H2O2 and 3,3′-diaminobenzidene (DAB) with and without SD-29 overnight. A control included DMSO only (included in the same volume as SD-29). The brown spots indicate sites of accumulation of H2O2.

Sequence of RACK1A (O24456 whole entry): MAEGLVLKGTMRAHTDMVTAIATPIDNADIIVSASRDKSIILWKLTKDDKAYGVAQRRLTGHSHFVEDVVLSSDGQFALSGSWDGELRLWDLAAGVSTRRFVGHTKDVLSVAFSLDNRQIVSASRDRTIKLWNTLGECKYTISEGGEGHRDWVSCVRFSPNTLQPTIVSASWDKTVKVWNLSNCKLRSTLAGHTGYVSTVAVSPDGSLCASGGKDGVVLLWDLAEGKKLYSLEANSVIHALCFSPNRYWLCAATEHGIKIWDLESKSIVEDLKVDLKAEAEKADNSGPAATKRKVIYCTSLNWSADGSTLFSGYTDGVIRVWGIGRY
T1 sequence (O24456 whole entry): as above

With `Nn1c(S)nnc1-c1ccc(F)cc1` [SD-29], the half-maximal inhibitory concentration (IC50) against RACK1A (data not shown) stood at 12.5 µM. For the same compound, the “tyrosine phosphorylation (Y248) based homodimerization of RACK1A proteins” value on RACK1A (in-vitro assay) was “prevent tyrosine phosphorylation (Y248) based homodimerization of RACK1A proteins”. Further, in the series with Arabidopsis plants, the “salt stress induced chlorosis of Arabidopsis plants” value is reported as “effective to allow the Arabidopsis plants to withstand the salt stress induced chlorosis”. For the same compound, the “Arabidopsis RACK1A tyrosine phosphorylation during heat stress” value on Arabidopsis RACK1A (60 μM, 42° C. for six hours, western blot of leaf lysates) is listed as “prevents Arabidopsis RACK1A tyrosine phosphorylation”. The “Arabidopsis RACK1A tyrosine phosphorylation at increased temperature” value on Arabidopsis RACK1A (42° C. for three hours, western blot, antibody to phosphorylated Y248) was “effective to prevent Arabidopsis RACK1A tyrosine phosphorylation at increased temperature”. Also, the “salt stress-induced chlorosis of rice leaves” value in the series on rice detached leaves (60 μM compound and 250 mM NaCl, about 24° C.) is listed as “protect the rice leaves from salt stress-induced chlorosis”. Besides, the “rice leaf appearance with compound alone” value in the series on rice detached leaves (60 μM compound without salt, vs untreated Leaf C) is reported as “showed little difference from control Leaf C”. The “pepper plant condition in high salt” value in the series with pepper plants was “thrived in the high salt conditions (with no chlorosis)”. The “cytoplasmic and chloroplastic Cu/Zn SOD enzyme activities in pepper leaves” value in the series on Cu/Zn SOD was “caused upregulation of both the cytoplasmic (lower band) and chloroplastic (upper band) Cu/Zn SOD enzyme activities”. The “salt uptake through the salt glands (sodium green fluorescence)” value in series [1] was “prevents salt uptake through the salt glands (trichome)”. In addition, the “H2O2 accumulation in leaves” value in the series with Arabidopsis leaves is listed as “prevents H2O2 accumulation in the leaves”.

(Values after patent US11737462B2, “Methods for modulating plant response to environmentally-induced stress” (Howard University, priority 2012, dated 2023).)
